{"source": "patent US20080194544A1", "about": "“AQUEOUS FORMULATIONS OF EPINASTINE FOR TREATING ALLERGIC RHINITIS” (priority 2007, published 2008)", "settings": "intranasal 0.05% or 0.1% spray", "method": "Each group started with approximately 190 subjects.\nThe plasma samples from 43 subjects included in this clinical trial were collected for pharamacokinetic analysis following the first dose (Day 1) and the last dose (Day 14). Plasma epinastine levels following intranasal administration were determined."}
{"smiles": "NC1=NCC2c3ccccc3Cc3ccccc3N12", "note": "(centres unmarked) [epinastine, 3-amino-9,13b-dihydro-1H-dibenz-[c,-f]imidazol[1,5-a]azepine]", "values": [{"measurement": "dose proportionality of plasma epinastine concentrations", "value": "generally proportional to the nasal dose administered"}, {"measurement": "plasma concentrations of epinastine", "setting": "after first dose (Day 1) and last dose (Day 14), 43 subjects", "value": "< 1", "unit": "ng/mL"}]}
